Reference: patent US5563130A, “Methods for inhibiting angiogenesis, proliferation of endothelial or tumor cells and tumor growth” (American Cyanamid Company, priority 1994, dated 1996)

What was measured:
Format in all cases: cell-based
HTB 16 = assay: Antiproliferative activity in human tumor cell line HTB 16; settings: ovarian tumor line; PROTOCOL 1 and PROTOCOL 2
Experimental: (§1) PROTOCOL 1, 2, and 3 are described in greater detail hereinbelow. In general, according to PROTOCOLS 1 and 2, the target ABAE and/or Human Tumor cells are exposed to the compound of Formula I for 48 hours. PROTOCOL 3 exposes ABAE cell to the compound for 4 days. A detailed description of the protocol is as follows:
(§2) Antiproliferative Activity in Human Tumor and Adult Bovine Aortic Endothelial (ABAE) Cell Lines
(§3) The antiproliferative activity of the compounds of Formula I of the present invention is evaluated in a panel comprised of human tumor cell lines and an adult bovine aortic endothelial cell line (ABAE). The human tumor cell lines are from:
(§4) All cell lines are maintained in log phase in RPMI 1640 media, supplemented with 5% fetal calf serum, penicillin/streptomycin and 2 mM L-glutamine. Cultures are renewed after 20 passages with cells from a fresh stock of batch-frozen early passage cells. Cell lines are routinely checked for mycoplasma contamination (Genprobe). In a laminar flow hood, cells (1-5×10^4) are plated into 96-well microtiter plates in a volume of 0.1 ml/well with a bulk microtiter dispenser (Denley). […] At this concentration, dimethylsulfoxide has no effect on cell growth. Compounds are added using a Tomtec dispenser which simultaneously dispenses from one 96-well plate, containing the drug dilutions, to the plates containing the cells. After two days of continuous drug exposure, 50% cold trichloroacetic acid (TCA) is added to 10% final concentration to fix the cells, and after 60 minutes at 4° C., the TCA is aspirated and the plates are washed 5 times with deionized water using a microtiter plate washer. The number of cells on the plate are quantitated using a protein dye-binding assay (Monks et al., 1991). A 0.4% solution of the dye, sulforhodamine B, in glacial acetic acid is added to the plates, and the plates are washed 5 times with 1% glacial acetic acid using the automatic plate washed. The bound stain is solubilized with 0.1 ml of 10 mM Tris base. The optical densities are read from an automatic spectrophotometric plate reader (Dynatech) directly to a main frame computer (VAX 8600).
(§5) Positive controls, that include standard chemotherapeutic drugs (i.e., adriamycin, cisplatin, etc.), are included in every experiment.
(§6) Background optical density measurements (complete media-cells, and complete media+drug-cells) are automatically subtracted from the appropriate control and test wells. Mean values and standard errors are determined from duplicate wells. A measure is also made of the optical density at time when the drugs are added. The number of cells after treatment (P), as % of control, is calculated for every concentration of drug, as follows: [formula] wherein: T is optical density measurement for treated cells after 48 hours;
(§7) C is optical density measurement for untreated cells after 48 hours;
(§8) Co is optical density measurement for cells at the time of drug addition.
(§9) IC50 of growth inhibition is calculated from the sets of P values using the RS-1 data package (BBN Software).
(§10) The antiproliferative activity of the compounds of Formula I is evaluated in a panel comprised of human tumor cell lines and an adult bovine aortic endothelial cell line (ABAE) as listed in PROTOCOL 1. This assay is a modification of PROTOCOL 1. The modifications include:
(§11) 1) each concentration for each compound is tested in a single well;
(§12) 2) compounds are tested at 20, 4, 0.8, 0.16 microgram/ml and additionally in some experiments at 100 and 0.32 microgram/ml;
(§13) 3) samples are pipetted into a 96-well plate for each of the cell lines by a Beckman Biomek 1000 SL robot;
(§14) 4) after fixing with TCA each well is washed with 0.35 ml distilled water twice, not five times;
(§15) 5) after staining with sulforhodamine B each well is washed 3 times, not five times; […]

SW620 = assay: Antiproliferative activity in human colon tumor cell line SW620; settings: PROTOCOL 1 and PROTOCOL 2
Experimental: as §1, §2, §3
(§16) 2) Colon tumors: MIP, CaCo2, and SW620.
as §4, §5, §6, §7, §8, §9, §10, §11, §12, §13, §14, §15

Human Tumor Cell lines = assay: Antiproliferative activity in panel of human tumor cell lines
Experimental: as §1, §2, §3, §16, §4, §5, §6, §7, §8, §9, §10, §11, §12, §13, §14, §15

A2780/DDP = assay: Antiproliferative activity in human ovarian tumor cell line A2780/DDP; settings: PROTOCOL 1 and PROTOCOL 2
Experimental: as §1, §2, §3, §4, §5, §6, §7, §8, §9, §10, §11, §12, §13, §14, §15

A2780S = assay: Antiproliferative activity in human ovarian tumor cell line A2780S; settings: PROTOCOL 1 and PROTOCOL 2
Experimental: as §1, §2, §3, §4, §5, §6, §7, §8, §9, §10, §11, §12, §13, §14, §15

MIP = assay: Antiproliferative activity in human colon tumor cell line MIP; settings: PROTOCOL 1 and PROTOCOL 2
Experimental: as §1, §2, §3, §16, §4, §5, §6, §7, §8, §9, §10, §11, §12, §13, §14, §15

CACO2 = assay: Antiproliferative activity in human colon tumor cell line CACO2; settings: PROTOCOL 1 and PROTOCOL 2
Experimental: as §1, §2, §3, §16
All cell lines are maintained in log phase in RPMI 1640 media, supplemented with 5% fetal calf serum, penicillin/streptomycin and 2 mM L-glutamine. […] The number of cells on the plate are quantitated using a protein dye-binding assay (Monks et al., 1991). […] The optical densities are read from an automatic spectrophotometric plate reader (Dynatech) directly to a main frame computer (VAX 8600). […]
Background optical density measurements (complete media-cells, and complete media+drug-cells) are automatically subtracted from the appropriate control and test wells. Mean values and standard errors are determined from duplicate wells. […]

In the case of `C=CCN(CC=C)CC(=O)Nc1ccc2c(c1O)C(=O)C1=C(O)[C@]3(O)C(=O)C(C(N)=O)=C(O)[C@@H](N(C)C)C3CC1C2.Cl.Cl` (stereo partly drawn) [Example 2], the “HTB 16 IC50” value (HTB 16) is reported as 1.5 µg/mL, the “SW620 IC50” value (SW620) is reported as 1.5 µg/mL and the “inhibition of cell growth at the highest concentrations” value (Human Tumor Cell lines; FIG. 2, 6 human tumor cell lines, highest concentrations) is reported as < 100%. The AVERAGE IC50 FOR TUMOR CELL LINES (Human Tumor Cell lines; average over the tested human tumor cell lines) was 2.75 µg/mL, the Dead floating cells (Human Tumor Cell lines; even at the highest concentration) was “not observed” and the “A2780/DDP IC50” value (A2780/DDP) was 4.0 µg/mL. The “A2780S IC50” value (A2780S) was 1.5 µg/mL, the “MIP IC50” value (MIP) was 4.0 µg/mL and the “CACO2 IC50” value (CACO2) was 4.0 µg/mL.
